These results are taken from US6906175B2, “Production of adenine nucleotide translocator (ANT), novel ANT ligands and screening assays therefor” (priority 1998, dated 2005).

Test [1] addresses T1, GST-huANT3 recombinantly produced in E. coli (membranes) (Homo sapiens, UniProt P12236).
T1 construct: Gly-Ser-Pro-Gly-Ile-Leu-Met, where “Met” indicates the amino acid encoded by the translation initiation codon of huANT3; made in house; host or cells: E. coli (crude membrane preparation)
T1 sequence (P12236 1-298): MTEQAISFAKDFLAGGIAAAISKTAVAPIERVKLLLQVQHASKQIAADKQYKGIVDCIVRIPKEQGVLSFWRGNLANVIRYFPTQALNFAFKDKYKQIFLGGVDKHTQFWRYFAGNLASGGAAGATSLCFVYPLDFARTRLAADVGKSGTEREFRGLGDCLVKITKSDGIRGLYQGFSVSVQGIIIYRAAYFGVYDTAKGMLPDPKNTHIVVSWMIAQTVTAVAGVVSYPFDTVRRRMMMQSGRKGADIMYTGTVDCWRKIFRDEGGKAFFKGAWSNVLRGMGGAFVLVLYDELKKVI
In words: Saturation binding of [32P]ATP to E. coli membranes, huANT3-producing cells. The following applies: for cpm bound by: huANT3-Producing Cells: 25 μg membrane protein, 2 hr room temperature. On the procedure:
(§1) Following arabinose induction, transformed or sham transformed (vector only) E coli were collected by centrifugation at 2000 g for 10 min. The bacterial pellets were resuspended in MSB, to which lysozyme (100 μg/ml) was added. After 20 min at room temperature, the lysates were subjected to one freeze-thaw cycle followed by sonication as described above. The resultant membrane preparation was used for binding assays.
(§2) […] The membranes with bound ATP were sedimented by centrifugation at 5000 g for 5 min, and washed once with binding buffer. Membrane pellets were then mixed with 5 ml scintillation cocktail and counted.

In test [2] the test system is sham transformed E. coli membranes. The test can be described thus: Saturation binding of [32P]ATP to E. coli membranes, sham transformed (vector only) cells. The following applies: 25 μg membrane protein, 2 hr room temperature. On the procedure:
as §1, §2

For a further test, the target named is T2, GST-huANT3 (Homo sapiens, UniProt P12236).
T2 construct: Gly-Ser-Pro-Gly-Ile-Leu-Met, where “Met” indicates the amino acid encoded by the translation initiation codon of huANT3; made in house; host or cells: E. coli (solubilized lysate, captured on agarose-glutathione beads)
T2 sequence (P12236 1-298): T1 sequence (P12236 1-298)
The test can be described thus: ATP binding to agarose-glutathione beads incubated with solubilized bacterial lysate. As to the method:
Agarose-glutathione beads were incubated with solubilized (using Dnase, Rnase and 0.1% Triton X-100, see Example 1, section D) bacterial lysate (see Example 2), and substituted for the E. coli membranes in binding assays. Best results (i.e., more specific binding) were seen when the beads were preincubated with bovine serum albumin (BSA, 0.1%) Specific ATP binding (1,070 cpm) was also observed in this experiment (compare to nonspecific binding of 279 cpm in the presence of 10 mM non-radiolabeled ATP).

Another test has as its target T3, Sf9/huANT3 mitochondria (Homo sapiens, UniProt P12236).
T3 construct: expressed in transfected cells; host or cells: Spodoptera frugiperda Sf9 cells infected with recombinant baculovirus; isolated mitochondria
T3 sequence (P12236 1-298): T1 sequence (P12236 1-298)
In words: Homologous competition of [32P]ATP binding to Sf9/huANT3 mitochondria. The following applies: 25 μg mitochondrial protein per assay; FIG. 7. As to the method:
To estimate maximal binding and the extent of overexpression of the huANT3, 25 μg of membrane protein was incubated with varying amounts of [^32P]ATP (1-500 μM) in binding buffer (120 mM KCl, 10 mM Tris, 1 mM EDTA, pH 7.4) for 2 hr at room temperature. The membranes with bound ATP were sedimented by centrifugation at 5000 g for 5 min, and washed once with binding buffer. Membrane pellets were then mixed with 5 ml scintillation cocktail and counted.
Sf9 cells expressing huANT3 were grown in spinner flasks. The cells were harvested by centrifugation at 2,000 g for 5 min. The cell pellet was resuspended in MSB and subjected to 3 freeze-thaw cycles. Cell membranes and debris were removed by centrifugation at 600 g for 5 min; mitochondria were collected by centrifuging the supernatant at 20,000 g for 15 min. The mitochondrial pellets were suspended in MSB, and used for binding assays as described above. Homologous competition of [^32P]ATP binding was performed using 25 μg mitochondrial protein per assay.

The nature of test [3]: Binding of [32P]ATP to Ni-agarose bead material from control (uninfected) Sf9 cells. The following applies: 2 hr. As to the method: (§3) His-tagged huANT3 protein was purified from baculovirus-infected Sf9 solubilized cell lysates using Ni-agarose magnetic beads; Sf9 cells that had not been infected were used as negative controls. The beads were incubated with [^32P]ATP (1 or 100 μM) for 2 hr. The beads were washed and then counted to determine the amount of bound ATP. […] Binding saturation had essentially been achieved with 1 μM ATP.

The target in a further test is T4, His-tagged huANT3 (Homo sapiens, UniProt P12236).
T4 sequence (P12236 1-298): T1 sequence (P12236 1-298)
In words: Binding of [32P]ATP to purified His-tagged huANT3 on Ni-agarose magnetic beads. The following applies: for cpm bound by: huANT3-Producing Cells: 2 hr. The arrangement: made in house; host or cells: baculovirus-infected Sf9 cells. On the procedure: as §3

As for `Nc1ncnc2c1ncn2[C@@H]1O[C@H](COP(=O)(O)OP(=O)(O)OP(=O)(O)O)[C@@H](O)[C@H]1O` [ATP, adenosine triphosphate], the “cpm bound by: huANT3-Producing Cells” value in test [1] ([ATP] 0.1 uM) is on record as 191 cpm; in test [1] ([ATP] 0.5 uM), 49 cpm; in test [1] ([ATP] 1.0 uM), 325 cpm; in test [1] ([ATP] 10 uM), 263 cpm; in test [1] ([ATP] 50 uM), 2,727 cpm; in test [1] ([ATP] 100 uM), 5,772 cpm. In addition, the “cpm bound by: huANT3-Producing Cells” value in test [1] ([ATP] 500 uM) is listed as 9,715 cpm; on His-tagged huANT3 ([ATP] 1.0 uM), 149 cpm; on His-tagged huANT3 ([ATP] 100 uM), 160 cpm. Besides, the Kd is approximately 6 µM in test [1] (from saturation binding data of Table 2, read-out: affinity of the ATP binding) and 13 µM at Sf9/huANT3 mitochondria. Further, the “cpm bound by: Sham Transformed Cells” value in test [2] ([ATP] 0.1 uM) was found to be 109 cpm; in test [2] ([ATP] 0.5 uM), 95 cpm; in test [2] ([ATP] 1.0 uM), 147 cpm; in test [2] ([ATP] 5.0 uM), 123 cpm; in test [2] ([ATP] 10 uM), 214 cpm; in test [2] ([ATP] 50 uM), 549 cpm. Moreover, the “cpm bound by: Sham Transformed Cells” value is given as 718 cpm in test [2] ([ATP] 100 uM) and 2,140 cpm in test [2] ([ATP] 500 uM). The “Specific ATP binding” value at GST-huANT3 (beads preincubated with BSA 0.1%) is 1,070 cpm. In addition, the nonspecific binding on GST-huANT3 (in the presence of 10 mM non-radiolabeled ATP) came out at 279 cpm. In addition, the “cpm bound by: Control (Uninfected) Cells” value stood at 43 cpm in test [3] ([ATP] 1.0 uM) and 30 cpm in test [3] ([ATP] 100 uM). Besides, the “ATP concentration at which binding saturation had essentially been achieved” value at His-tagged huANT3 was determined as 1 µM.
